Measured values as given in the supplement of paper PMC11208160.
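Also: IS621 bridge recombinase in Escherichia coli cells against a fixed T5 target plasmid.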

Assay: recombinant UMI read abundance after kanamycin selection (control-corrected) (log10(CPM+1)); higher = more efficient recombination; extreme values may be limits of the assay; sequences stand for … in AGTGCAGAGAAAATCGGCCAGTTTTCTCTGCCTGCAGTCCGCATGCCGTGGGACCCCTTGGGTTCTAACCTGTTGCCTAGATTTATGCAGCGGACTGCCTTTCTCCCAAAGTGATAAACCGG…AGGTTGGTTTCACT; site = the 11-nt donor
Method: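 Pooled E. coli donor-specificity screen for the IS621 bridge recombinase. Each library member carries a reprogrammed 11-nt donor and a full-length LE bridge RNA expressed in cis from the natural promoter, with a paired donor-binding loop (8-nt LDG + 4-nt RDG) and a target-binding loop fixed to T5. It is co-electroporated with a T5 target plasmid; recombinase is induced with 0.07 mM IPTG and recombinants are selected on kanamycin. UMIs are counted as CPM, averaged over two biological replicates and corrected by the unselected control. Molecule = full bridge RNA written as DNA, built from the T5 scaffold: LDG = donor specificity nt 1-8, RDG = reverse complement of nt 8-11.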
For “ACAGTATCATGGACCGGTTTTCCCGGTAATCCGTATTTGCA (site ACAGTGTCTGG)”, the “recombinant UMI read abundance (log10)” value was 0.
For “ACAGTATCATGGACCGGTTTTCCCGGTAATCCGTATTTGCA (site ACAGTGTCTTG)”, the “recombinant UMI read abundance (log10)” value was 2.4.
For “ACAGTATCATGGACCGGTTTTCCCGGTAATCCGTATTTGCA (site ACAGTGTCTTT)”, the “recombinant UMI read abundance (log10)” value was 0.0151.
With “ACAGTATCATGGACCGGTTTTCCCGGTAATCCGTATTTGCA (site ACAGTTGCTTG)” the “recombinant UMI read abundance (log10)” value was 0.0085.
In the case of “ACAGTATCATGGACCGGTTTTCCCGGTAATCCGTATTTGCA (site ACAGTTTCTCG)”, the “recombinant UMI read abundance (log10)” value is reported as 0.
For “ACAGTATCATGGACCGGTTTTCCCGGTAATCCGTATTTGCA (site ACAGTTTCTTA)”, the “recombinant UMI read abundance (log10)” value was 0.0131.
With “ACAGTATCATGGACCGGTTTTCCCGGTAATCCGTATTTGCA (site ACAGTTTCTTG)” the “recombinant UMI read abundance (log10)” value was 1.23.
In the case of “ACAGTATCATGGACCGGTTTTCCCGGTAATCCGTATTTGCA (site ACATGATCTTG)”, the “recombinant UMI read abundance (log10)” value is reported as 1.29.
In the case of “ACAGTATCATGGACCGGTTTTCCCGGTAATCCGTATTTGCA (site ACATTACCTTG)”, the “recombinant UMI read abundance (log10)” value is reported as 0.
In the case of “ACAGTATCATGGACCGGTTTTCCCGGTAATCCGTATTTGCA (site ACATTATCTGG)”, the “recombinant UMI read abundance (log10)” value is reported as 0.
In the case of “ACAGTATCATGGACCGGTTTTCCCGGTAATCCGTATTTGCA (site ACATTATCTTG)”, the “recombinant UMI read abundance (log10)” value is reported as 1.22.
With “ACAGTATCATGGACCGGTTTTCCCGGTAATCCGTATTTGCA (site ACATTATCTTT)” the “recombinant UMI read abundance (log10)” value was 0.0113.
For “ACAGTATCATGGACCGGTTTTCCCGGTAATCCGTATTTGCA (site ACATTGTCTTG)”, the “recombinant UMI read abundance (log10)” value was 1.03.
With “ACAGTATCATGGACCGGTTTTCCCGGTAATCCGTATTTGCA (site ACCATATCTTG)” the “recombinant UMI read abundance (log10)” value was 1.91.
In the case of “ACAGTATCATGGACCGGTTTTCCCGGTAATCCGTATTTGCA (site ACCGAATCTTG)”, the “recombinant UMI read abundance (log10)” value is reported as 0.
For “ACAGTATCATGGACCGGTTTTCCCGGTAATCCGTATTTGCA (site ACCGTAACTTG)”, the “recombinant UMI read abundance (log10)” value was 0.0063.
For “ACAGTATCATGGACCGGTTTTCCCGGTAATCCGTATTTGCA (site ACCGTATCTAG)”, the “recombinant UMI read abundance (log10)” value was 0.0104.
With “ACAGTATCATGGACCGGTTTTCCCGGTAATCCGTATTTGCA (site ACCGTATCTTC)” the “recombinant UMI read abundance (log10)” value was 0.00762.
For “ACAGTATCATGGACCGGTTTTCCCGGTAATCCGTATTTGCA (site ACCGTATCTTG)”, the “recombinant UMI read abundance (log10)” value was 1.82.
With “ACAGTATCATGGACCGGTTTTCCCGGTAATCCGTATTTGCA (site ACCGTCTCTTG)” the “recombinant UMI read abundance (log10)” value was 1.39.
For “ACAGTATCATGGACCGGTTTTCCCGGTAATCCGTATTTGCA (site ACGCTATCTTG)”, the “recombinant UMI read abundance (log10)” value was 1.16.
For “ACAGTATCATGGACCGGTTTTCCCGGTAATCCGTATTTGCA (site ACGGCATCTTG)”, the “recombinant UMI read abundance (log10)” value was 0.
For “ACAGTATCATGGACCGGTTTTCCCGGTAATCCGTATTTGCA (site ACGGTAGCTTG)”, the “recombinant UMI read abundance (log10)” value was 0.0044.
With “ACAGTATCATGGACCGGTTTTCCCGGTAATCCGTATTTGCA (site ACGGTATCTCG)” the “recombinant UMI read abundance (log10)” value was 0.00452.
In the case of “ACAGTATCATGGACCGGTTTTCCCGGTAATCCGTATTTGCA (site ACGGTATCTTA)”, the “recombinant UMI read abundance (log10)” value is reported as 0.00481.
With “ACAGTATCATGGACCGGTTTTCCCGGTAATCCGTATTTGCA (site ACGGTATCTTG)” the “recombinant UMI read abundance (log10)” value was 0.0156.
For “ACAGTATCATGGACCGGTTTTCCCGGTAATCCGTATTTGCA (site ACGGTTTCTTG)”, the “recombinant UMI read abundance (log10)” value was 0.0105.
In the case of “ACAGTATCATGGACCGGTTTTCCCGGTAATCCGTATTTGCA (site ACTGGATCTTG)”, the “recombinant UMI read abundance (log10)” value is reported as 0.
With “ACAGTATCATGGACCGGTTTTCCCGGTAATCCGTATTTGCA (site ACTGTACCTTG)” the “recombinant UMI read abundance (log10)” value was 0.
For “ACAGTATCATGGACCGGTTTTCCCGGTAATCCGTATTTGCA (site ACTGTATCTGG)”, the “recombinant UMI read abundance (log10)” value was 0.00893.
For “ACAGTATCATGGACCGGTTTTCCCGGTAATCCGTATTTGCA (site ACTGTATCTTG)”, the “recombinant UMI read abundance (log10)” value was 2.31.
For “ACAGTATCATGGACCGGTTTTCCCGGTAATCCGTATTTGCA (site ACTGTATCTTT)”, the “recombinant UMI read abundance (log10)” value was 0.00405.
In the case of “ACAGTATCATGGACCGGTTTTCCCGGTAATCCGTATTTGCA (site ACTGTGTCTTG)”, the “recombinant UMI read abundance (log10)” value is reported as 1.26.
With “ACAGTATCATGGACCGGTTTTCCCGGTAATCCGTATTTGCA (site ACTTTATCTTG)” the “recombinant UMI read abundance (log10)” value was 1.44.
In the case of “ACAGTATCATGGACCGGTTTTCCCGGTAATCCGTATTTGCA (site AGAGGATCTTG)”, the “recombinant UMI read abundance (log10)” value is reported as 0.0328.
In the case of “ACAGTATCATGGACCGGTTTTCCCGGTAATCCGTATTTGCA (site AGAGTACCTTG)”, the “recombinant UMI read abundance (log10)” value is reported as 0.
In the case of “ACAGTATCATGGACCGGTTTTCCCGGTAATCCGTATTTGCA (site AGAGTATCTGG)”, the “recombinant UMI read abundance (log10)” value is reported as 0.0344.
For “ACAGTATCATGGACCGGTTTTCCCGGTAATCCGTATTTGCA (site AGAGTATCTTG)”, the “recombinant UMI read abundance (log10)” value was 2.46.
With “ACAGTATCATGGACCGGTTTTCCCGGTAATCCGTATTTGCA (site AGAGTATCTTT)” the “recombinant UMI read abundance (log10)” value was 0.0042.
In the case of “ACAGTATCATGGACCGGTTTTCCCGGTAATCCGTATTTGCA (site AGAGTGTCTTG)”, the “recombinant UMI read abundance (log10)” value is reported as 1.6.
With “ACAGTATCATGGACCGGTTTTCCCGGTAATCCGTATTTGCA (site AGATTATCTTG)” the “recombinant UMI read abundance (log10)” value was 1.58.
For “ACAGTATCATGGACCGGTTTTCCCGGTAATCCGTATTTGCA (site AGTGTATCTTG)”, the “recombinant UMI read abundance (log10)” value was 1.45.
With “ACAGTATCATGGACCGGTTTTCCCGGTAATCCGTATTTGCA (site ATACTATCTTG)” the “recombinant UMI read abundance (log10)” value was 1.12.
For “ACAGTATCATGGACCGGTTTTCCCGGTAATCCGTATTTGCA (site ATAGCATCTTG)”, the “recombinant UMI read abundance (log10)” value was 1.83.
With “ACAGTATCATGGACCGGTTTTCCCGGTAATCCGTATTTGCA (site ATAGTAGCTTG)” the “recombinant UMI read abundance (log10)” value was 0.354.
In the case of “ACAGTATCATGGACCGGTTTTCCCGGTAATCCGTATTTGCA (site ATAGTATCTCG)”, the “recombinant UMI read abundance (log10)” value is reported as 0.0911.
With “ACAGTATCATGGACCGGTTTTCCCGGTAATCCGTATTTGCA (site ATAGTATCTTA)” the “recombinant UMI read abundance (log10)” value was 0.
In the case of “ACAGTATCATGGACCGGTTTTCCCGGTAATCCGTATTTGCA (site ATAGTATCTTG)”, the “recombinant UMI read abundance (log10)” value is reported as 2.04.
In the case of “ACAGTATCATGGACCGGTTTTCCCGGTAATCCGTATTTGCA (site ATAGTTTCTTG)”, the “recombinant UMI read abundance (log10)” value is reported as 0.0207.
For “ACAGTATCATGGACCGGTTTTCCCGGTAATCCGTATTTGCA (site ATGGTATCTTG)”, the “recombinant UMI read abundance (log10)” value was 1.7.
In the case of “ACAGTATCATGGACCGGTTTTCCCGGTAATCCGTATTTGCA (site CCAGGATCTTG)”, the “recombinant UMI read abundance (log10)” value is reported as 0.811.
In the case of “ACAGTATCATGGACCGGTTTTCCCGGTAATCCGTATTTGCA (site CCAGTACCTTG)”, the “recombinant UMI read abundance (log10)” value is reported as 0.0123.
In the case of “ACAGTATCATGGACCGGTTTTCCCGGTAATCCGTATTTGCA (site CCAGTATCTGG)”, the “recombinant UMI read abundance (log10)” value is reported as 0.613.
With “ACAGTATCATGGACCGGTTTTCCCGGTAATCCGTATTTGCA (site CCAGTATCTTG)” the “recombinant UMI read abundance (log10)” value was 2.71.
With “ACAGTATCATGGACCGGTTTTCCCGGTAATCCGTATTTGCA (site CCAGTATCTTT)” the “recombinant UMI read abundance (log10)” value was 0.00394.
With “ACAGTATCATGGACCGGTTTTCCCGGTAATCCGTATTTGCA (site CCAGTGTCTTG)” the “recombinant UMI read abundance (log10)” value was 1.8.
With “ACAGTATCATGGACCGGTTTTCCCGGTAATCCGTATTTGCA (site CCATTATCTTG)” the “recombinant UMI read abundance (log10)” value was 2.31.
